Experimental data taken from ChEMBL document CHEMBL1154058, “Identification of novel serotonin 2C receptor ligands by sequential virtual screening” (Bioorg Med Chem, 2009).

Assays:
[1] = target: T1, 5-hydroxytryptamine receptor 2C (Homo sapiens, UniProt P28335); assay: Displacement of [3H]Mesulergine from human recombinant serotonin 5-HT2C expressed in CHO-K1 cells; assay type: cell-based
T1 sequence (P28335 whole entry): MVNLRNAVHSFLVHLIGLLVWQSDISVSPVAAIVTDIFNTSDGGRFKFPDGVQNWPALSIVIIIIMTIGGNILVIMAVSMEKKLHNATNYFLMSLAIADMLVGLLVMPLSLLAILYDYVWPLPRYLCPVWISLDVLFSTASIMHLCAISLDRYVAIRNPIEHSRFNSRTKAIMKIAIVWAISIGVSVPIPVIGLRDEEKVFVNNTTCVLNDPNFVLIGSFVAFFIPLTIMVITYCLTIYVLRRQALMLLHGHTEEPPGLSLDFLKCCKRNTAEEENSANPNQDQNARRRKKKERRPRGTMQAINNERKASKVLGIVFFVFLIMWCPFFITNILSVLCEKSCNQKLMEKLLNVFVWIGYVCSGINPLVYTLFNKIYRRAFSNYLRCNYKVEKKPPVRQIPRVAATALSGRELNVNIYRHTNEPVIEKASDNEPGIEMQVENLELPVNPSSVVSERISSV

[2] = target: T1, 5-hydroxytryptamine receptor 2C; assay: Binding affinity to 5-HT2C receptor

SMILES | IC50 [1] [µM] | Ki [2] [µM]
COc1cc2c(cc1OC)C1CCCN1C(C)(C)C2 (configuration not stated) | > 10 | –
CCCCN(C)CCNc1nc(C)nc2oc(C)c(C(=O)OCC)c12 | 4.17 | –
C[C@@H](N)Cn1ccc2cc(F)c(Cl)cc21 | – | 0.001
Cn1ncc2c(Nc3ccc(F)cc3)nc(NCCCO)nc21 | > 10 | –
Cn1c(=O)n(C)c2cc(CNCCN3CCOCC3)ccc21 | > 10 | –
Clc1cccc(COc2cncc(N3CCNCC3)n2)c1 | – | 0.001
C[C@@H]1CN(c2ccc(C(F)(F)F)c3ccoc23)CCN1 | – | 0.0024
CCc1ccccc1NC(=O)CC1NCCNC1=O (configuration not stated) | > 10 | –
C[C@@H]1CNC[C@H]2Cc3ccc(COCC4CC4)nc3N21 | – | 0.004
CCCNc1nc2ccc(C)cc2n2nnnc12 | > 10 | –
CCCNc1nc(Nc2ccccc2)c2cnn(C)c2n1 | > 10 | –
Cn1ncc2c(Nc3ccc(F)cc3)nc(NC3CCCC3)nc21 | > 10 | –
CCOC(=O)c1noc2ncnc(N3CCN(C)CC3)c12 | 2.05 | –
COC(=O)c1cnn2c(O)nc(C3CCNCC3)nc12 | 0.589 | –
Cc1ccc2onc(CNC(=O)N3CCN(C)CC3)c2c1 | 8.93 | –
COCCCNc1nc(Nc2ccc(F)cc2)c2cnn(C)c2n1 | > 10 | –
CCN(CC)CCn1c(NCc2ccncc2)nc2ccccc21 | > 10 | –
CCc1nnc2c(NC)nc3ccccc3n12 | 5.11 | –
Cc1noc(C(=O)NCCN2CCOCC2)c1Cl | > 10 | –
Cc1ccc(NC(=O)N2CCN3CCCCC3C2)cc1C (configuration not stated) | > 10 | –
CN1CCN(CCNC(=O)c2cc3ccc4cccnc4c3[nH]2)CC1 | > 10 | –
CC(=O)Nc1c(C(=O)N2CCN(C)CC2)oc2ccccc12 | 5.29 | –
CC(=O)N(CCN(C)C)c1nc2cc3c(cc2s1)OCO3 | 2.73 | –
Cn1ncc2c(Nc3ccc(F)cc3)nc(NCCN3CCOCC3)nc21 | > 10 | –
Cc1nnc(SCc2cc(=O)n3nc(C4CC4)sc3n2)[nH]1 | > 10 | –
Fc1cccc(F)c1-c1cc2c3c(c1)[C@H]1CNCC[C@H]1N3CCCS2 | – | 0.0052

SMILES | IC50 [1] [µM] | Ki [2] [µM]
CCn1ncc(C2=NOC(C(=O)NCCN3CCOCC3)C2)c1C (configuration not stated) | > 10 | –
CCC(=O)Nc1nn2c(-c3cccc(C)c3)nnc2s1 | 9.22 | –
CN(C)CCNC(=O)c1nc(-c2cccnc2)no1 | > 10 | –
Cc1ccc(C2=NC3(CCNCC3)NC2=O)cc1C | > 10 | –
CCc1cc2c(ccc3cnn(C[C@@H](C)N)c32)o1 | – | 0.00089
CN(C)CCNC(=O)c1cc2ccccc2[nH]1 | 0.424 | –
Cc1cccc(CN2CCNC(=O)C2CC(=O)O)c1 (configuration not stated) | > 10 | –
CCc1nnc2c(NCCC3=CCCCC3)nc3ccccc3n12 | > 10 | –
CCOC(=O)C1=CCc2nc(C)nc(NCCN(C)C)c21 | 4.48 | –
CCNc1nc(Nc2ccc(F)cc2)c2cnn(C)c2n1 | > 10 | –
Cc1cc(C(=O)NCCN2CCOCC2)on1 | > 10 | –
Cc1ccc(CCNc2nc3ccc(C)cc3n3nnnc23)cc1 | > 10 | –
Cc1noc2ncnc(NCCN3CCOCC3)c12 | > 10 | –
COc1ccc2c3c([nH]c2c1)[C@@](C)(C(=O)O)NCC3 | > 10 | –
CC(=O)N(CCN(C)C)c1nc2c(F)cccc2s1 | 2 | –
Clc1ccc(Cl)c(-c2ccnc(N3C[C@@H]4CCN[C@@H]4C3)n2)c1 | – | > 20
CCN1Cc2cccc(CNc3ccc(C)c(F)c3)c2C1 | 5.63 | –
O=C1Nc2cc(Cl)c(Cl)cc2N2CCNC[C@H]12 | – | 0.0033
CCOC(=O)c1c(C)oc2ncnc(NCCN3CCOCC3)c12 | > 10 | –
C=CCNc1nc(Nc2ccc(F)cc2)c2cnn(C)c2n1 | > 10 | –
COCCNc1nc(Nc2ccc(F)cc2)c2cnn(C)c2n1 | > 10 | –
Cc1ccccc1NC(=O)N1CCN2CCCCC2C1 (configuration not stated) | > 10 | –
Cc1cccc(C(=O)Nc2nn3c(-c4ccccc4C)nnc3s2)c1 | > 10 | –
CCNc1nc(Nc2ccccc2)c2cnn(C)c2n1 | > 10 | –
CN(C)CCNC(=O)c1ccc(-n2ccc3ccccc32)s1 | 0.222 | –
CC1CCCCN1CCNC(=O)c1noc2c1CCc1sccc1-2 (configuration not stated) | > 10 | –
